Test results: patent US20200188468A1, “A COATED COSTUS COMPOSITION ENRICHED WITH TRITERPENOIDS AND A METHOD OF PREPARATION OF THE SAME” (priority 2017, published 2020)

Tests used:
Assay type in all cases: in vivo, Wistar rats
[1] = system: streptozotocin-induced diabetic rats; assay: Oral glucose tolerance test on day 1, 15 and 30 of 30 days treatment; conditions: STZ diabetic rats, doses as in E42
Description: (§1) Adult Wistar rats weighing 200-250 gm were selected at random; the animals were kept in standard animal house conditions at 24±2° C., 65% relative humidity and 12 h light/dark cycle. After five days of acclimatisation, diabetes was induced by injecting streptozotocin 35 mg/kg dissolved in 0.1M citrate buffer of pH 4.5, intraperitoneally, as standardised in our laboratory. Five days after induction of diabetes (day 1 of the study), animals fasted for 12 hours and the fasting blood glucose level (FBG) was estimated for diagnosing diabetic rats. Animals having FBG more than 250 mg/dl were included in the study.
(§2) Six normal healthy rats were allocated to Group I; streptozotocin-induced diabetic rats were randomly allocated to Groups 2 to 9 with 6 rats in each group. The animals were treated for 30 days as per below experimental design:
(§3) Group 3—Positive control—diabetic animals administered with glibenclamide at 1 mg/kg Body wt orally for 30 days.
(§4) Group 4—diabetic animals administered with Sample 1 at 100 mg/kg Body wt orally for 30 days.
(§5) Group 5—diabetic animals administered with Sample 2 at 100 mg/kg Body wt orally for 30 days.
(§6) Group 6—diabetic animals administered with of Sample 3 at 100 mg/kg Body wt orally for 30 days.
(§7) Group 7—diabetic animals administered with Product-1 at 50 mg/kg Body wt orally for 30 days.
(§8) Group 8—diabetic animals administered with Product-2 at 50 mg/kg Body wt orally for 30 days.
(§9) Group 9—diabetic animals administered with of Product-3 at 10 mg/kg Body wt orally for 30 days.
Oral glucose tolerance test (OGTT) was performed following a glucose challenge of 2 g/kg by oral gavages. It was to test the ability of body cells to absorb glucose after you ingest a given amount of sugar. Blood glucose was recorded at 30 min (PPG1), 60 min (PPG2), 120 min (PPG3) and 180 min (PPG4), after the glucose challenge on day 1, day 15 and day 30 of the study.

[2] = system: streptozotocin-induced diabetic rats; assay: Fasting blood glucose level, 30 days treatment; conditions: STZ diabetic rats, glibenclamide 1 mg/kg, Samples 1-3 100 mg/kg, Product-1 and -2 50 mg/kg, Product-3 10 mg/kg orally
Description: as §1, §2, §3, §4, §5, §6, §7, §8, §9
FBG was measured on Day 0, Day 15 and Day 30. OGTT was also performed on Day 0, Day 15 and Day 30.

[3] = system: streptozotocin and HFD diabetic rats; assay: Streptozotocin plus high fat diet Type 2 diabetes model, coated versus uncoated costus extract; conditions: STZ + HFD diabetic rats
Description: Wistar rats were selected at random; the animals were kept in standard animal house conditions at 24±2° C., 65% relative humidity and 12 h light/dark cycle. The animals were acclimatized for a period of five days and fed with standard pellet diet and water. Fasted male Wistar rats were intraperitoneally injected with freshly prepared solution of streptozotocin (STZ) (35 mg/kg). After injection, all the animals were continued on the standard rodent diet for 2 weeks. At the end of 2 weeks after STZ injection; 1 ml of blood was collected from retro-orbital plexus of each rat. Blood was allowed to clot for 30 min the serum was separated by centrifuging at 1008 G-force for 20 min at 8.0° C. in a cold centrifuge. The serum separated from the blood of each animal was used for the estimation of glucose. All the samples were analysed calorimetrically in Autoanalyzer (MERCK MICROLAB 300) using commercial kits. The development of hyperglycaemia in these rats was thus confirmed by measuring fasting blood glucose levels. The rats with the fasting PGL of ≥200 mg dl−1 were considered diabetic and selected for further dietary manipulation. 350 g of standard rodent diet was powdered and mixed with 60 g of lard, 45 g of yolk powder, and 45 g of plantation white sugar (HFD diet). The above mixture is pelleted and used to feed the rats for 2 weeks to induce diabetic dyslipidaemia. Required amount of the diet was freshly prepared on a daily basis. At the end of 2nd week the blood was collected from each animal for determination of glucose levels as described above.
After the second fasting blood glucose estimation, at the end of 4th week, the rats were divided into 6 groups of 6 rats each: Group-1 consisted of age-matched non-diabetic normal rats that neither received streptozotocin nor the high-fat diet and served as normal; Group 2 consisted of diabetic rats without any drug treatment and served as untreated control; Group 3 consisted of diabetic rats and received standard drug, Glibenclamide. Group 4 consisted of diabetic rats and received excipients. Group 5 consisted of diabetic rats and sample 2. Group 6 consisted of diabetic rats and product 2. The high fat diet was continued for the rest of the study duration.
Group 3—Diabetic, HFD administered group treated with Glibenclamide at 2.5 mg/Kg p.o. body weight.
Group 5—Diabetic, HFD administered group treated with sample 2 for at 40 mg/kg twice daily.
Group 6—Diabetic, HFD administered group treated with product-2 at 100 mg/kg twice daily.
Body weights were determined biweekly. At the end of experimental period, blood samples were collected to determine plasma glucose, insulin, leptin, glycosylated hemoglobin, triglycerides, total cholesterol, LDL, HDL and VLDL.

[4] = system: high-fat diet-induced insulin resistance rats; assay: High fat diet-induced insulin resistance model (Type 2 diabetes); conditions: HFD rats
Description: The study was designed to evaluate the effect of different fractions and compositions of costus on high fat-induced resistance Type-2 diabetic model (HFD). Adult Wistar rats were allowed free access to food and water. They were housed under identical standard conditions. The animals were kept for acclimatisation for a period of 7 days. After 7 days, the animals were randomly divided into six groups of six rats each. The normal control group was treated with normal regular diet and the rest of the animals were fed with high-fat diet for 6 weeks. After 6 weeks, Sample-1, Sample-3, and Product-2 were administered at a specific dosage as per their groups for 6 consecutive weeks. The experimental design was as follows:
as §3
Group 4—diabetic animals administered with Sample-1 at 300 mg/kg Body wt orally for 30 days.
Group 5—diabetic animals administered with Sample-3 at 100 mg/kg Body wt orally for 30 days.
Group 6—diabetic animals administered with of Product-2 at 50 mg/kg Body wt orally for 30 days.
Body weights were determined weekly. At the end of experimental period, blood samples were collected to determine plasma glucose, insulin, glycosylated haemoglobin, triglycerides, and total cholesterol, LDL, HDL and VLDL.

[5] = system: streptozotocin-induced diabetic rats; assay: Postprandial glucose levels (OGTT) of costus in various dosages; conditions: STZ diabetic rats, 1 mg/kg oral
Description: Adult Wistar rats weighing 200-250 gm were selected at random; the animals were kept in standard animal house conditions at 24±2° C., 65% relative humidity and 12 h light/dark cycle. The animals were acclimatized for a period of five days and fed with standard pellet diet and water. Six healthy rats were separated at random from the lot and diabetes was induced in rest by a single intra-peritoneal injection of streptozotocin (STZ) at 35 mg/kg. Fasting blood sugar (FBS) was measured after seven days of STZ injection and rats having FBS more than 200 mg/dl were considered as diabetic. The diabetic rats were separated out and randomly divided into 11 groups having six rats in each. Six normal healthy rats were allocated to Group I; STZ induced diabetic rats were randomly allocated to Groups 2 to 12.
Oral glucose tolerance test (OGTT) was performed following a glucose challenge of 2 g/kg by oral gavages. It was to test the ability of body cells to absorb glucose after you ingest a given amount of sugar. Blood glucose was recorded at 30 min, 60 min, 120 min and 180 min, after the glucose challenge on day of the study.
Just after glucose challenge test a specific Doses of Sample-1 (from example 1) and Product-2 (from example 4) were administered through oral gavages. The dosages for Sample-1 and Product-1 were in a range of 25 mg/kg Body wt to 300 mg/kg Body wt. In one of the groups animals were administered with glibenclamide.
Group 2—Positive control—diabetic animals administered with glibenclamide at 1 mg/kg Body wt orally for 30 days.
Group 3—diabetic animals administered with Sample-2 at 25 mg/kg Body wt orally for 30 days.
Group 4—diabetic animals administered with Sample-2 at 50 mg/kg Body wt orally for 30 days.
Group 5—diabetic animals administered with Sample-2 at 75 mg/kg Body wt orally for 30 days.
Group 6—diabetic animals administered with Sample-2 at 100 mg/kg Body wt orally for 30 days.
Group 7—diabetic animals administered with Sample-2 at 150 mg/kg Body wt orally for 30 days.
Group 8—diabetic animals administered with Sample-2 at 300 mg/kg Body wt orally for 30 days.
Group 9—diabetic animals administered with Product-2 at 25 mg/kg Body wt orally for 30 days.
Group 10—diabetic animals administered with Product-2 at 50 mg/kg Body wt orally for 30 days.
Group 11—diabetic animals administered with Product-2 at 75 mg/kg Body wt orally for 30 days.
Group 12—diabetic animals administered with Product-2 at 100 mg/kg Body wt orally for 30 days.
Group 13—diabetic animals administered with Product-2 at 150 mg/kg Body wt orally for 30 days.

[6] = end of experimental period, doses as in E59

COc1ccc(Cl)cc1C(=O)NCCc1ccc(S(=O)(=O)NC(=O)NC2CCCCC2)cc1 [glibenclamide]
PPG 30 min, Day 1 ([1]; Day 1, 30 min after 2 g/kg glucose): 294 mg/dL | PPG 60 min, Day 1 ([1]; Day 1, 60 min after 2 g/kg glucose): 232 mg/dL | PPG 120 min, Day 1 ([1]; Day 1, 120 min after 2 g/kg glucose): 226 mg/dL | PPG 180 min, Day 1 ([1]; Day 1, 180 min after 2 g/kg glucose): 158 mg/dL | PPG 30 min, Day 15 ([1]; Day 15, 30 min after 2 g/kg glucose): 285 mg/dL | PPG 60 min, Day 15 ([1]; Day 15, 60 min after 2 g/kg glucose): 225 mg/dL | PPG 120 min, Day 15 ([1]; Day 15, 120 min after 2 g/kg glucose): 219 mg/dL | PPG 180 min, Day 15 ([1]; Day 15, 180 min after 2 g/kg glucose): 153 mg/dL | PPG 30 min, Day 30 ([1]; Day 30, 30 min after 2 g/kg glucose): 276 mg/dL | PPG 60 min, Day 30 ([1]; Day 30, 60 min after 2 g/kg glucose): 218 mg/dL | PPG 120 min, Day 30 ([1]; Day 30, 120 min after 2 g/kg glucose): 212 mg/dL | PPG 180 min, Day 30 ([1]; Day 30, 180 min after 2 g/kg glucose): 148 mg/dL | Fasting blood glucose level 0th day ([2]; day 0): 388 mg/dL | Fasting blood glucose level 15th day ([2]; day 15): 266 mg/dL | Fasting blood glucose level 30th day ([2]; day 30): 142 mg/dL | Glycosylated Hb ([3]; after 28 days, doses as in E92): 0.5 % of total Hb | HDL ([3]; after 28 days, doses as in E92): 25 mg/dL | LDL ([3]; after 28 days, doses as in E92): 92 mg/dL | TC ([3]; after 28 days, doses as in E92): 136.4 mg/dL | TG ([3]; after 28 days, doses as in E92): 97 mg/dL | VLDL ([3]; after 28 days, doses as in E92): 19.4 mg/dL | Body weight at biweekly interval, 0 ([3]; interval 0, Glibenclamide 2.5 mg/kg p.o., sample 2 40 mg/kg, product-2 100 mg/kg twice daily): 168 grams | Body weight at biweekly interval, 2 ([3]; interval 2, doses as in E92): 174 grams | Body weight at biweekly interval, 4 ([3]; interval 4, doses as in E92): 180 grams | Body weight at biweekly interval, 6 ([3]; interval 6, doses as in E92): 187 grams | Body weight at biweekly interval, 8 ([3]; interval 8, doses as in E92): 192 grams | Insulin ([3]; serum, after 28 days, doses as in E92): 1.58 ng/mL | Blood glucose [4, 6]: 142 mg/dL | Glycosylated Hb [4, 6]: 0.5 % of total Hb | HDL [4, 6]: 27 mg/dL | LDL [4, 6]: 55 mg/dL | TC [4, 6]: 91.4 mg/dL | TG [4, 6]: 47 mg/dL | VLDL [4, 6]: 9.4 mg/dL | Insulin ([4]; serum, end of experimental period, doses as in E59): 1.7 ng/mL | Body weight, week 0 ([4]; week 0, glibenclamide 1 mg/kg, Sample-1 300 mg/kg, Sample-3 100 mg/kg, Product-2 50 mg/kg orally): 216 grams | Average Body weight at weekly interval, week 2 ([4]; week 2, doses as in E59): 259 grams | Average Body weight at weekly interval, week 3 ([4]; week 3, doses as in E59): 274 grams | Average Body weight at weekly interval, week 4 ([4]; week 4, doses as in E59): 280 grams | Average Body weight at weekly interval, week 5 ([4]; week 5, doses as in E59): 270 grams | Average Body weight at weekly interval, week 6 ([4]; week 6, doses as in E59): 248 grams | Postprandial glucose level 30 min ([5]; 30 min after 2 g/kg glucose): 294 mg/dL | Postprandial glucose level 60 min ([5]; 60 min after 2 g/kg glucose): 170 mg/dL | Postprandial glucose level 120 min ([5]; 120 min after 2 g/kg glucose): 127 mg/dL | Postprandial glucose level 180 min ([5]; 180 min after 2 g/kg glucose): 101 mg/dL
